Experiment [1] deals with Human immunodeficiency virus type 1 protease (Human immunodeficiency virus 1, UniProt Q72874). Kind of experiment: Concentration required for in vitro inhibitory activity against HIV-1 protease.
A further experiment relates to CCRF-CEM. Kind of experiment: Concentration required for in vitro antiviral activity against HIV-1 virus infected CEM cells. Type of experiment: functional, cell-based. The conditions noted are these: Homo sapiens.
The next experiment concerns MT2. Description: Concentration required for in vitro antiviral activity against HIV-1 virus infected MT2 cells. Type of experiment: functional, cell-based. The conditions noted are these: Homo sapiens.

What is called IC50 is the concentration at which inhibition is half-maximal. In turn, `CC(=O)N[C@@H](CC(=O)OCc1ccccc1)C(=O)N[C@@H](Cc1ccccc1)[C@H](O)Cc1ccccc1C(=O)NC(C)(C)C` gave a half-maximal inhibitory concentration (IC50) in experiment [1] of 85 nM.

Consider `CC(C)(C)NC(=O)c1ccccc1C[C@@H](O)[C@H](Cc1ccccc1)NC(=O)C(CC(N)=O)NC(=O)c1ccc2ccccc2n1` (single isomer, unassigned), for which the half-inhibitory concentration (IC50) in the experiment with CCRF-CEM amounted to 23 nM. This counts as double-digit nanomolar.

In turn, `CC(=O)N[C@H](CSCc1ccccc1)C(=O)N[C@@H](Cc1ccccc1)[C@H](O)Cc1ccccc1C(=O)NC(C)(C)C` displayed an IC50 in experiment [1] greater than 1000 nM.

Consider `CC(=O)N[C@H](CS(=O)(=O)c1ccc2ccccc2c1)C(=O)N[C@@H](Cc1ccccc1)[C@H](O)Cc1ccccc1C(=O)NC(C)(C)C`, for which the figures for the IC50 (in experiment [1]; with CCRF-CEM; in the experiment with MT2) were 0.3 nM, 11 nM and 31 nM, respectively.

As for `CC(C)(C)NC(=O)c1ccccc1C[C@@H](O)[C@H](Cc1ccccc1)NC(=O)[C@H](CC(=O)NCc1ccc2ccccc2n1)NS(C)(=O)=O`, the IC50 in experiment [1] came to 8 nM; in the experiment with CCRF-CEM it was 580 nM; in the experiment on MT2, 1440 nM.

As for `CC(C)(C)NC(=O)c1ccccc1C[C@@H](O)[C@H](Cc1ccccc1)NC(=O)[C@H](CC(=O)OCc1ccccc1)NC(N)=O`, the IC50 in experiment [1] worked out at 51 nM; in the experiment on CCRF-CEM it was 22400 nM; with MT2, 11900 nM.

In experiment [1], `CC(=O)N[C@H](CC(=O)OCc1ccccc1)C(=O)N[C@@H](Cc1ccccc1)[C@H](O)Cc1ccccc1C(=O)NC(C)(C)C` came in with an IC50 greater than 1000 nM.

On to `CC(=O)N[C@@H](CSCc1ccccc1)C(=O)N[C@@H](Cc1ccccc1)[C@H](O)Cc1ccccc1C(=O)NC(C)(C)C`, for which the figures for the IC50 (in experiment [1]; in the experiment on CCRF-CEM; with MT2) were 45 nM, 2910 nM and 3120 nM, respectively.

Regarding `CC(=O)N[C@@H](CS(=O)(=O)c1ccc2ccccc2n1)C(=O)N[C@@H](Cc1ccccc1)[C@H](O)Cc1ccccc1C(=O)NC(C)(C)C`, the results for the IC50 (in experiment [1]; in the experiment with CCRF-CEM; in the experiment with MT2) were 0.3 nM, 53 nM and 180 nM, respectively.

With `CC(C)(C)NC(=O)c1ccccc1C[C@@H](O)[C@H](Cc1ccccc1)NC(=O)[C@H](CC(=O)OCc1ccccc1)NS(C)(=O)=O`, the half-maximal inhibitory concentration (IC50) was 5.4 nM in experiment [1], 1090 nM with CCRF-CEM and 1270 nM with MT2.

In experiment [1], `CC(C)(C)NC(=O)c1ccccc1C[C@@H](O)[C@H](Cc1ccccc1)NC(=O)[C@@H](CC(=O)OCc1ccccc1)NS(C)(=O)=O` gave an IC50 greater than 1000 nM.

For `CC(=O)N[C@@H](CSc1ccc2ccccc2c1)C(=O)N[C@@H](Cc1ccccc1)[C@H](O)Cc1ccccc1C(=O)NC(C)(C)C`, the figures for the IC50 (in experiment [1]; with CCRF-CEM; in the experiment on MT2) were 42 nM, 1130 nM and 1000 nM, respectively.
